Earlier results as cited in patent EP0527942B1, “COLONIC DRUG DELIVERY SYSTEM” (Perio Products Limited, priority 1990, dated 1991).

Tested on: morphine-dependent rats
Conditions: for time to diarrhea, withdrawal behavior and tail skin temperature response: oral administration

Molecule: C=CCN1CC[C@]23c4c5ccc(O)c4O[C@H]2C(=O)CC[C@@]3(O)[C@H]1C5 [naloxone]
- time to diarrhea, withdrawal behavior and tail skin temperature response: ≤ 15 min

Molecule: nalmefene glucuronide
- time to diarrhea (direct colonic administration): 5 to 8 min
- activity when administered subcutaneously (subcutaneous administration): inactive

Molecule: C=C1CC[C@@]2(O)[C@H]3Cc4ccc(O)c5c4[C@@]2(CCN3CC2CC2)[C@H]1O5 [nalmefene]
- time to diarrhea, withdrawal behavior and tail skin temperature response: ≤ 15 min
